Results as given in US6894075B2, “4′-demethyl-4′-O-substituted-1-deoxypodophyllotoxin derivative and geometric isomer thereof, process for the preparation thereof and anti-cancer composition comprising the same” (priority 2000, dated 2005).
Values joined by “and” are separate entries in the source; they are usually repeats but may differ in a detail not shown here. Equal entries are not always repeated. Where two headings read alike, the source gives them in different places.

Columns and labels:
A549 cell = experiment: Cytotoxicity test (SRB method) for A549 cells; assay type: cell-based, human; settings: for EC50: read-out: ED50(nM) for A549; for cytotoxicity compared with DPT: A549, in words
Method in brief: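 SRB assay: cells seeded 24 h at 37 °C, then exposed 48 h to samples at 0.1, 0.03, 0.01 and 0.003 mg/ml final. TCA-fixed, SRB-stained, OD read at 520 nm. Growth is calculated against time-zero and untreated controls, and ED50 is the concentration giving 50% growth inhibition, obtained by regression.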

[1] = tested on: Lewis Lung Cancer Cell (LLC); experiment: Anti-cancer test for BDF1 mouse transplanted by Lewis Lung Cancer Cell, Experiment 2-1 (formulae 1a, 1b); assay type: in vivo; settings: peritoneal injection 0.06 mmole/kg/day at days 1, 2, 4, 7, 8 (etoposide 36 mg/kg), cancer volume at 14 to 16 days
Source text: In order to evaluate the anti-cancer activity of the compounds of the present invention, LLC, which is a lung cancer cell of mouse, was transplanted into the hypodermic region of BDF1 mouse to induce a solid cancer. […] Experiment for the compounds of formulae (1a) and (1b) and that for the compound of formula (1c) were separately carried out.
Male BDF1 mouse (Weight 18 to 25 g), being in good health and purchased from Korea Biolink Co., was used as a test animal.
The mice were bred at a place controlled to the temperature of 23 to 24° C. while provided with water and feed ad libitum. As the feed, feed for mouse containing no antibiotics was used. The hypodermic tissue of C57BL/6 mouse, which includes cells cultured therein for 14 days, was taken up. Sterilized cold physiological saline was added to the tissue in the amount of 5 ml/g tissue to make a cell suspension. This cell suspension of 0.2 ml was transplanted into the hypodermic region of armpit of BDF1 mouse.
(§1) Each group includes 5 mice. After 24 hours from the transplantation, each test compound of formulae (1a) and (1b) was dissolved in 4% Tween 80 and injected peritoneally in the amount of 0.2 ml and in a concentration of 0.06 mmole/kg/day (that is, 0.06 mmole of each test compound was dissolved in 10 ml of 4% Tween 80, and then 0.2 ml of the resulting solution was peritoneally injected into a mouse). Only 4% Tween 80 was injected for the negative control group, and the same moles of etoposide (36 mg/kg) was injected for the positive control group. The injection was performed five times at 1, 2, 4, 7 and 8 days from the transplantation of cancer.
The anti-cancer effect was determined by measuring the volume of cancer of the control and test groups at 14 to 16 days from the administration of drugs and then calculated as follows. Volume of Cancer(mm^3)=Length(mm)×Width^2(mm^2)/2 Suppression Rate of Cancer Growth(%)=(C−T)×100(%)/C in which • C represents the average volume of cancer (mm^3) of the control group, and • T represents the average volume of cancer (mm^3) of the test group.

[2] = Weight change in the period of drug administration; assay type: in vivo, mouse; settings: for Weight of mouse, Day 1: Day 1 from the cancer cell transplantation; for Weight of mouse, Day 2: Day 2 from the cancer cell transplantation; for Weight of mouse, Day 3: Day 3 from the cancer cell transplantation; for Weight of mouse, Day 4: Day 4 from the cancer cell transplantation; for Weight of mouse, Day 5: Day 5 from the cancer cell transplantation; for Weight of mouse, Day 6: Day 6 from the cancer cell transplantation; for Weight of mouse, Day 7: Day 7 from the cancer cell transplantation; for Weight of mouse, Day 8: Day 8 from the cancer cell transplantation
Method: as §1
As an index of toxicity, the weight change during the period of drug administration was recorded for the compounds of formulae (1a) and (1b) compared with the comparison compound of Etoposide.

[3] = tested on: mouse leukemia cell line L1210; settings: L1210 transplanted into CDF1 mouse, compared with the negative control (Terada et al. 1992); cited from earlier work
[4] = A549 human lung cancer cell, SRB, 48 hours incubation

Compound | EC50 (A549 cell; Homo sapiens, A549, 48 h) [nM] | Suppression Rate for LLC [1] | Weight of mouse, Day 1 [2] [g] | Weight of mouse, Day 2 [2] [g] | Weight of mouse, Day 3 [2] [g] | Weight of mouse, Day 4 [2] [g] | Weight of mouse, Day 5 [2] [g] | Weight of mouse, Day 6 [2] [g] | Weight of mouse, Day 7 [2] [g] | Weight of mouse, Day 8 [2] [g] | extension effect of life span [3] | EC50 (A549 cell; [4]) [nM] | cytotoxicity compared with DPT (A549 cell) | weight loss ([2]; compared with the control group, 8 days)
COc1cc([C@@H]2c3cc4c(cc3C[C@H]3COC(=O)[C@@H]32)OCO4)cc(OC)c1OC [DPT, Deoxypodophyllotoxin] | 75.5 | 60% and 60.2% | 23.1 | 23.9 | 24 | 24 | 24.4 | 25 | 25 | 24.9 | about 12% | – | – | –
COc1cc(C2c3cc4c(cc3CC3COC(=O)C32)OCO4)cc(OC)c1OC(=O)NCCCl (centres unmarked) [Compound 1b-3, 4′-demethyl-4′-O-(2-chloroethylcarbamoyl)-1-deoxypodophyllotoxin] | – | 75% | 23.3 | 23 | 23.6 | 24.5 | 26 | 25 | 26 | 25.8 | – | 92 | – | –
COc1cc(C2c3cc4c(cc3CC3COC(=O)C32)OCO4)cc(OC)c1OC(=O)C(N)CC(C)C (centres unmarked) [Compound 1a-2, 4′-demethyl-4′-O-leucinoyl-1-deoxypodophyllotoxin] | – | 88% | 23.3 | 24.3 | 25 | 26.1 | 26 | 25 | 25.3 | 26.1 | – | 68 | stronger cytotoxicity than DPT | –
COc1cc(C2c3cc4c(cc3CC3COC(=O)C32)OCO4)cc(OC)c1OC(=O)CCCCCCN (centres unmarked) [Compound 1a-14, 4′-demethyl-4′-O-(7-aminoheptanoyl)-1-deoxypodophyllotoxin] | – | 90% | 23 | 23.8 | 21.6 | 26 | 22.3 | 22.8 | 22.8 | 22.5 | – | 79.6 | – | about 0.5 g/mouse
COc1cc(C2c3cc4c(cc3CC3COC(=O)C32)OCO4)cc(OC)c1OC(=O)NCCO (centres unmarked) [Compound 1b-5, 4′-demethyl-4′-O-(2-hydroxyethyl)carbamoyl-1-deoxypodophyllotoxin] | – | 95.1% | 23.4 | 23.8 | 22.2 | 23.8 | 23.4 | 23.8 | 23 | 23.2 | – | 61.5 | stronger cytotoxicity than DPT | –
COc1cc(C2c3cc4c(cc3CC3COC(=O)C32)OCO4)cc(OC)c1OC(=O)CCCCN (centres unmarked) [Compound 1a-12, 4′-demethyl-4′-O-(5-aminopentanoyl)-1-deoxypodophyllotoxin] | – | 82% | 22.8 | 24.2 | 25 | 25.4 | 24.8 | 26 | 25.8 | 26.2 | – | 90.3 | – | –
COc1cc(C2c3cc4c(cc3CC3COC(=O)C32)OCO4)cc(OC)c1OC(=O)CCCN (centres unmarked) [Compound 1a-11, 4′-demethyl-4′-O-(4-aminobutanoyl)-1-deoxypodophyllotoxin] | – | 82% | 22.8 | 24 | 24.2 | 25 | 24.4 | 25.4 | 25.4 | 25.5 | – | 91.6 | – | –
